Test results taken from patent US20090304692A1, “TRIAZINE COMPOUNDS AS PI3 KINASE AND MTOR INHIBITORS” (Wyeth, priority 2008, published 2009).
Where “and” joins values, the source holds several entries; their conditions need not be identical. Equal entries are not always repeated. Where two headings read alike, the source gives them in different places.

What was measured:
PI3K-γ = PI3K-γ (Homo sapiens, UniProt P48736); experiment: PI3K-gamma fluorescence polarization assay; conditions: read-out: IC50 PI3Kγ
Sequence of PI3K-γ (P48736 whole entry, species assumed): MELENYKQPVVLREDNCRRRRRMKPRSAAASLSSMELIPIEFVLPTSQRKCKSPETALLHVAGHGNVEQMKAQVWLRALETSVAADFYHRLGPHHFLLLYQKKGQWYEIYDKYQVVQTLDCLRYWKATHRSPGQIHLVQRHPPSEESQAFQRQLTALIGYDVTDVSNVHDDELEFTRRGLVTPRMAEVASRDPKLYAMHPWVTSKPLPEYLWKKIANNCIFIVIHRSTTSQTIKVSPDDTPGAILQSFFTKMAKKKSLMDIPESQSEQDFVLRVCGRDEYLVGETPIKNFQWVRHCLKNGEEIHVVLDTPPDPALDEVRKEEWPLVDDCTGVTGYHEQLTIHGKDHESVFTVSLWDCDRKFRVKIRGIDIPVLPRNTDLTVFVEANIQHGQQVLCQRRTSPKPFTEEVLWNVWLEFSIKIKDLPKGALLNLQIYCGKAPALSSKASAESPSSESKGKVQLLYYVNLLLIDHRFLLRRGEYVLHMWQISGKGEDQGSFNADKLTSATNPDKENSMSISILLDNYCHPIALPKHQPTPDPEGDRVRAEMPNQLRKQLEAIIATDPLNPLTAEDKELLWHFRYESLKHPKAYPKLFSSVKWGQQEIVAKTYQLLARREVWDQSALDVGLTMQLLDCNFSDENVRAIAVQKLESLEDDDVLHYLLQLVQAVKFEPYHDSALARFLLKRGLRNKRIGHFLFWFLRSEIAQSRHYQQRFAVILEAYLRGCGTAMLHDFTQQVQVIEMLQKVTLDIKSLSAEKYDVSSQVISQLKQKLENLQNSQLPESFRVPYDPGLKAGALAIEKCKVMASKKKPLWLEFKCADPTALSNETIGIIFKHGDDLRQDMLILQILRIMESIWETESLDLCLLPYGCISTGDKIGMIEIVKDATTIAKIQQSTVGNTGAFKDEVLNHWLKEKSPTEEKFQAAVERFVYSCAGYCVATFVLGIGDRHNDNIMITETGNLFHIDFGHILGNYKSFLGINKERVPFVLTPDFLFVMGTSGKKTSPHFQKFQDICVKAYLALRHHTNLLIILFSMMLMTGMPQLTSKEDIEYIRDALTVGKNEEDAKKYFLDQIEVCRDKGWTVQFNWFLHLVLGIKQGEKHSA

PI3K-α = PI3K-α (Homo sapiens, UniProt P42336); experiment: PI3K-alpha fluorescence polarization assay; conditions: read-out: IC50 PI3Kα
Sequence of PI3K-α (P42336 whole entry, species assumed): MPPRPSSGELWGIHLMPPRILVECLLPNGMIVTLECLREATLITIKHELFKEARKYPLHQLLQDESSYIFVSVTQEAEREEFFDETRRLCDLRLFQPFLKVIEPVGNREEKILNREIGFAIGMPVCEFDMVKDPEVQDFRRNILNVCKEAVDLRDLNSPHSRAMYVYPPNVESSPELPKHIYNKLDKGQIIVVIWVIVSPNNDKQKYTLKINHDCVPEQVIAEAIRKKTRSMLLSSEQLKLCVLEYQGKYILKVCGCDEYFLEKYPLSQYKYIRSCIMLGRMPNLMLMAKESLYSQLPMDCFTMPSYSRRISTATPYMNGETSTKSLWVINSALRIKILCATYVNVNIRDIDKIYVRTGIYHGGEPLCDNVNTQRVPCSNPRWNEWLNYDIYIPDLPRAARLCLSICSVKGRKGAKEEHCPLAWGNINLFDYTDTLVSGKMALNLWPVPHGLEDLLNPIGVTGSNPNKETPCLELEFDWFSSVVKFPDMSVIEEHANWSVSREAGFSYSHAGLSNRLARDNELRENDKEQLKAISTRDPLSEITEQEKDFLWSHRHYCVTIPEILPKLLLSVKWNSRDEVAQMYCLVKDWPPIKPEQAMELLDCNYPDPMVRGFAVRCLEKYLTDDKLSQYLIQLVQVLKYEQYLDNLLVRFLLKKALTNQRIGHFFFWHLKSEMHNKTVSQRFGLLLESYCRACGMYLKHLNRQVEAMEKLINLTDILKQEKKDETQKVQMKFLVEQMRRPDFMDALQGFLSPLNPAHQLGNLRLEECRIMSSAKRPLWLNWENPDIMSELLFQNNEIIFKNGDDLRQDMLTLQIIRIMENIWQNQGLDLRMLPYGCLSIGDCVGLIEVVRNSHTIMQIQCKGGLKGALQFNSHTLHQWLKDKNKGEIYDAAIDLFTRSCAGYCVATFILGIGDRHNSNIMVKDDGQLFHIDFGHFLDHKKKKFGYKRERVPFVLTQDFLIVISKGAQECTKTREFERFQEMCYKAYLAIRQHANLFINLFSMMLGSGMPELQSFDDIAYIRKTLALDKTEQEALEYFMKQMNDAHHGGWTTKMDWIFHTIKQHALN
Sequence of PI3K-α (P27986 whole entry partner, species assumed): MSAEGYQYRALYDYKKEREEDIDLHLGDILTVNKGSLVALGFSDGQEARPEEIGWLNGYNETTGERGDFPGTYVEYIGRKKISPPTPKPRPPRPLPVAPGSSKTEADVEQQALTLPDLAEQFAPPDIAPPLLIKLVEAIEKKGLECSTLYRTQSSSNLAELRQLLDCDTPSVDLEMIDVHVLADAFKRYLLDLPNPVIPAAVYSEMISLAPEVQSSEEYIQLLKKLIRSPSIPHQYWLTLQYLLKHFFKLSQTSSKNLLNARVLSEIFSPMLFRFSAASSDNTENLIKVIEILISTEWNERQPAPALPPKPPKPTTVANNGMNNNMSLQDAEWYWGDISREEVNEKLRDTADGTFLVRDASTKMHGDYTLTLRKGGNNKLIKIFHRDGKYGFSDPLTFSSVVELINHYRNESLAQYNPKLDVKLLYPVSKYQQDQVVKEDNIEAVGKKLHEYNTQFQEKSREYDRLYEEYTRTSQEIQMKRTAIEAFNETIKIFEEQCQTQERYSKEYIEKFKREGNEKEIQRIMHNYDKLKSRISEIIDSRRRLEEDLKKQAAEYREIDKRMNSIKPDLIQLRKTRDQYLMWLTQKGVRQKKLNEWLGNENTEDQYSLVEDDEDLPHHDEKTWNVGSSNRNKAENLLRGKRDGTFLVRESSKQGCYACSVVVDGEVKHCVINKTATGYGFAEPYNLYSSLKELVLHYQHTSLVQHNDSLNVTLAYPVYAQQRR

Human mTOR (FLAG-TOR) = Human mTOR (FLAG-TOR) (Homo sapiens, UniProt P42345); experiment: mTOR kinase assay (DELFIA format, purified enzyme); assay type: biochemical; conditions: read-out: IC50 mTOR
Sequence of Human mTOR (FLAG-TOR) (P42345 1360-2549 limits assumed): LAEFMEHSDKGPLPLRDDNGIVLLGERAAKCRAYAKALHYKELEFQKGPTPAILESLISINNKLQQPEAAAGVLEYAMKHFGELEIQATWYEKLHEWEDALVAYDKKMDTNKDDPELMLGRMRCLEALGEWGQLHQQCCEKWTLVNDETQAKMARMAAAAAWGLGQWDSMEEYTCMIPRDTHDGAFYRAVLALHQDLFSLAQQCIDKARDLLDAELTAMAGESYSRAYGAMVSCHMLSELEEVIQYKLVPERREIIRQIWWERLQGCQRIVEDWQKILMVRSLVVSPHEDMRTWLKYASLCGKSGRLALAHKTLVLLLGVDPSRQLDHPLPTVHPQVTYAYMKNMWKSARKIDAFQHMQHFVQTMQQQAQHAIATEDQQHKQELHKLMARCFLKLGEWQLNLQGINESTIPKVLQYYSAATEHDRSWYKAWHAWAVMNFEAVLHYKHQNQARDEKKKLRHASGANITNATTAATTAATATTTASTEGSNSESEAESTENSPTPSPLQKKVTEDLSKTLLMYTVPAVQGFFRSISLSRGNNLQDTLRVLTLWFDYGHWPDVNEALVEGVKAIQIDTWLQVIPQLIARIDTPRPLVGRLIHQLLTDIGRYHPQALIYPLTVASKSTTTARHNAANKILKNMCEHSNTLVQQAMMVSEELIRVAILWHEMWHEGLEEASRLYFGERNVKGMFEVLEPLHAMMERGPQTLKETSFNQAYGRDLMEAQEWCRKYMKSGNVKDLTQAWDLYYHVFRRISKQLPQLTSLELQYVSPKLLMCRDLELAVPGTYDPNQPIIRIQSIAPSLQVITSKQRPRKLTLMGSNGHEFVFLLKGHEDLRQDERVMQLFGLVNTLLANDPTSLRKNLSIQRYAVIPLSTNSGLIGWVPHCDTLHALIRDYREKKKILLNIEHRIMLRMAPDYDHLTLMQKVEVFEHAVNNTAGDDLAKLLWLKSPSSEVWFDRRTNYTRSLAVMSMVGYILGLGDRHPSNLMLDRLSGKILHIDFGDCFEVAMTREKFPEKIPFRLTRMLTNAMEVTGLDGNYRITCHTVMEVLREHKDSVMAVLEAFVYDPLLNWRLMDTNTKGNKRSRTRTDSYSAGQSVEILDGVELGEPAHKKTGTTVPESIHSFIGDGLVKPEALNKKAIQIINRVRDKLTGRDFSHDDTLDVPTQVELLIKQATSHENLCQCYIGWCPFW

| Compound | IC50 (PI3K-γ) [nM] | IC50 (PI3K-α) [nM] | IC50 (Human mTOR (FLAG-TOR)) | IC50 (PI3K-γ; listed as 531) [nM] | IC50 (PI3K-α; listed as 531) [nM] |
| --- | --- | --- | --- | --- | --- |
| 1-(4-(4-(3-oxa-8-azabicyclo[3.2.1]octan-8-yl)-6-(piperidin-4-ylamino)-1,3,5-triazin-2-yl)phenyl)-3-ethylurea [Example 363] | 7140 | 1100 | 0.77 nM |  |  |
| C[C@@H]1COCCN1c1nc(-c2ccc(NC(=O)Nc3ccc(N4CCC(N(C)C)CC4)cc3)cc2)nc(N2CCOC[C@H]2C)n1 [Example 449, 1-(4-(4,6-bis((R)-3-methylmorpholino)-1,3,5-triazin-2-yl)phenyl)-3-(4-(4-(dimethylamino)piperidin-1-yl)phenyl)urea] | 1640 | 287 | 1.9 nM |  |  |
| Cc1ccc(-c2nc(-c3ccc(NC(=O)Nc4cccc(C(=O)N5CCN(C)CC5)c4)cc3)nc(N3CCOCC3)n2)cc1 [Example 576, 1-{4-[4-(4-methylphenyl)-6-morpholin-4-yl-1,3,5-triazin-2-yl]phenyl}-3-{3-[(4-methylpiperazin-1-yl)carbonyl]phenyl}urea] | 2080 | 761 | 140 nM |  |  |
| O=C(Nc1ccc(C(=O)O)cc1)Nc1ccc(-c2nc(N3CCCC3)nc(N3CCOCC3)n2)cc1 [Example 599, 4-({[4-(4-morpholin-4-yl-6-pyrrolidin-1-yl-1,3,5-triazin-2-yl)phenyl]carbamoyl}amino)benzoic acid] | 190 | 64.5 | 13 nM |  |  |
| CC(C)N1CCN(C(=O)c2ccc(NC(=O)Nc3ccc(-c4nc(N5CCOCC5)nc(N5CCCN(C(C)C)CC5)n4)cc3)cc2)CC1 [Example 663, 1-(4-{4-[4-(1-methylethyl)-1,4-diazepan-1-yl]-6-morpholin-4-yl-1,3,5-triazin-2-yl}phenyl)-3-(4-{[4-(1-methylethyl)piperazin-1-yl]carbonyl}phenyl)urea] | 296 | 47.3 | 590 nM |  |  |
| COC(=O)c1ccc(NC(=O)Nc2ccc(-c3nc(N4CCOCC4)nc(N4CCN(C(=O)N(C)C)CC4)n3)cc2)cc1 [Example 641, methyl 4-{[(4-{4-[4-(dimethylcarbamoyl)piperazin-1-yl]-6-morpholin-4-yl-1,3,5-triazin-2-yl}phenyl)carbamoyl]amino}benzoate] | 276 | 88.5 | 7 nM |  |  |
| O=C(Nc1ccc(-c2nc(N3CCOCC3)nc(N3C4CCC3COC4)n2)cc1)Nc1ccnnc1 [Example 483, 1-{4-[4-morpholin-4-yl-6-(3-oxa-8-azabicyclo[3.2.1]oct-8-yl)-1,3,5-triazin-2-yl]phenyl}-3-pyridazin-4-ylurea] | 150 | 28.5 | 1.55 nM |  |  |
| COC(=O)c1ccc(NC(=O)Nc2ccc(-c3nc(-c4cccs4)nc(N4CCOCC4)n3)cc2)cc1 [Example 560, methyl 4-[({4-[4-morpholin-4-yl-6-(2-thienyl)-1,3,5-triazin-2-yl]phenyl}carbamoyl)amino]benzoate] | 504 | 269 | 100 nM |  |  |
| CN(C)CCOc1ccc(NC(=O)Nc2ccc(-c3nc(NS(=O)(=O)c4ccccc4)nc(N4CCOCC4)n3)cc2)cc1 [Example 783, N-(4-{4-[({4-[2-(dimethylamino)ethoxy]phenyl}carbamoyl)amino]phenyl}-6-morpholin-4-yl-1,3,5-triazin-2-yl)benzenesulfonamide] | 736 | 346 | 295 nM |  |  |
| C[C@@H]1COCCN1c1nc(-c2ccc(NC(=O)Nc3ccc(C(=O)O)cc3)cc2)nc(N2CCOC[C@@H]2C)n1 [Example 626, 4-{[(4-{4-[(3R)-3-methylmorpholin-4-yl]-6-[(3S)-3-methylmorpholin-4-yl]-1,3,5-triazin-2-yl}phenyl)carbamoyl]amino}benzoic acid] | 208 | 59 | 1 nM |  |  |
| CCN1CCN(C(=O)c2ccc(NC(=O)Nc3ccc(-c4nc(N5C6CCC5COC6)nc(N5CCOC[C@@H]5C)n4)cc3)cc2)CC1 [Example 836, 1-{4-[(4-ethylpiperazin-1-yl)carbonyl]phenyl}-3-(4-{4-[(3S)-3-methylmorpholin-4-yl]-6-(3-oxa-8-azabicyclo[3.2.1]oct-8-yl)-1,3,5-triazin-2-yl}phenyl)urea] | 41 | 5.1 | 665 nM |  |  |
| CCNC(=O)Nc1ccc(-c2nc(N3CCOCC3)nc(N3CCOCC3)n2)cc1 [Example 12, 1-[4-(4,6-dimorpholin-4-yl-1,3,5-triazin-2-yl)phenyl]-3-ethylurea] | 815 | 248 | 11 nM |  |  |
| COC(CNc1nc(-c2ccc(NC(=O)Nc3cccnc3)cc2)nc(N2CCOCC2)n1)OC [Example 488, 1-(4-{4-[(2,2-dimethoxyethyl)amino]-6-morpholin-4-yl-1,3,5-triazin-2-yl}phenyl)-3-pyridin-3-ylurea] | 180 | 42 | 3.4 nM |  |  |
| Cc1ccc(-c2nc(-c3ccc(NC(=O)Nc4cccc(C(=O)NCCN(C)C)c4)cc3)nc(N3CCOCC3)n2)cc1 [Example 583, N-[2-(dimethylamino)ethyl]-3-[({4-[4-(4-methylphenyl)-6-morpholin-4-yl-1,3,5-triazin-2-yl]phenyl}carbamoyl)amino]benzamide] | 718 | 123 | 48 nM |  |  |
| O=C(Nc1ccc(-c2nc(-c3ccccc3)nc(N3CCOCC3)n2)cc1)Nc1cccc(C(=O)O)c1 [Example 590, 3-({[4-(4-morpholin-4-yl-6-phenyl-1,3,5-triazin-2-yl)phenyl]carbamoyl}amino)benzoic acid] | 404 | 343 | 49 nM |  |  |
| CCCCc1nc(-c2ccc(NC(=O)Nc3ccc(CN4CCN(C)CC4)cc3)cc2)nc(N2CCOCC2)n1 [Example 254, 1-[4-(4-butyl-6-morpholin-4-yl-1,3,5-triazin-2-yl)phenyl]-3-{4-[(4-methylpiperazin-1-yl)methyl]phenyl}urea] | 253 | 63 | 17 nM |  |  |
| CC(C)(C)OC(=O)N1CC2CN(c3nc(-c4ccc(NC(=O)Nc5ccncc5)cc4)nc(N4CCOCC4)n3)CC(C1)O2 [Example 281, tert-butyl-7-(4-morpholin-4-yl-6-{4-[(pyridin-4-ylcarbamoyl)amino]phenyl}-1,3,5-triazin-2-yl)-9-oxa-3,7-diazabicyclo[3.3.1]nonane-3-carboxylate] | 4980 | 2190 | 2800 nM |  |  |
| COC(=O)c1ccc(NC(=O)Nc2ccc(-c3nc(-c4ccccc4)nc(N4CCOCC4)n3)cc2)cc1 [Example 538, methyl 4-({[4-(4-morpholin-4-yl-6-phenyl-1,3,5-triazin-2-yl)phenyl]carbamoyl}amino)benzoate] | 197 | 333 | 0.125 nM |  |  |
| Cc1ccc(-c2nc(-c3ccc(NC(=O)Nc4ccc(N5CCC(N(C)C)CC5)cc4)cc3)nc(N3CCOCC3)n2)cc1 [Example 339, 1-{4-[4-(dimethylamino)piperidin-1-yl]phenyl}-3-{4-[4-(4-methylphenyl)-6-morpholin-4-yl-1,3,5-triazin-2-yl]phenyl}urea] | 485 | 71 | 90 nM and 80 nM | 484 | 71.5 |
| COC(=O)c1ccc(NC(=O)Nc2ccc(-c3nc(C)nc(N4CCOCC4)n3)cc2)cc1 [Example 162, methyl 4-({[4-(4-methyl-6-morpholin-4-yl-1,3,5-triazin-2-yl)phenyl]carbamoyl}amino)benzoate] | 495 | 10 | 23 nM |  |  |
| C[C@H]1COCCN1c1nc(-c2ccc(NC(=O)NC3CCN(C)CC3)cc2)nc(N2CCOCC2)n1 [Example 99, 1-(4-{4-[(3S)-3-methylmorpholin-4-yl]-6-morpholin-4-yl-1,3,5-triazin-2-yl}phenyl)-3-(1-methylpiperidin-4-yl)urea] | 7500 | 1520 | 460 nM |  |  |
| O=C(Nc1ccc(-c2nc(N3CCOCC3)nc(N3CCOCC3)n2)cc1)Nc1ccnnc1 [Example 481, 1-[4-(4,6-dimorpholin-4-yl-1,3,5-triazin-2-yl)phenyl]-3-pyridazin-4-ylurea] | 65 | 11 | 2.3 nM |  |  |
| CN1CCC(NC(=O)Nc2ccc(-c3nc(N4CCOCC4)nc(N4CCOCC4)n3)cc2)CC1 [Example 98, 1-[4-(4,6-dimorpholin-4-yl-1,3,5-triazin-2-yl)phenyl]-3-(1-methylpiperidin-4-yl)urea] | 9000 | 1350 | 2100 nM |  |  |
| Cc1cc(NC(=O)Nc2ccc(-c3nc(N4CCOCC4)nc(N4CC5CCC4CO5)n3)cc2)n(C)n1 (centres unmarked) [Example 808, 1-(1,3-dimethyl-1H-pyrazol-5-yl)-3-{4-[4-morpholin-4-yl-6-(2-oxa-5-azabicyclo[2.2.2]oct-5-yl)-1,3,5-triazin-2-yl]phenyl}urea] | 1260 | 381 | 260 nM |  |  |
| CC(=O)NC1CCN(C(=O)c2ccc(NC(=O)Nc3ccc(-c4nc(N5CCOCC5)nc(N5CCCN(C(C)C)CC5)n4)cc3)cc2)CC1 [Example 661, N-{1-[(4-{[(4-{4-[4-(1-methylethyl)-1,4-diazepan-1-yl]-6-morpholin-4-yl-1,3,5-triazin-2-yl}phenyl)carbamoyl]amino}phenyl)carbonyl]piperidin-4-yl}acetamide] | 462 | 56.5 | 580 nM |  |  |
| CCCC1CCN(C(=O)c2ccc(NC(=O)Nc3ccc(-c4nc(N5CCOCC5)nc(N5CCN(C(=O)N(C)C)CC5)n4)cc3)cc2)CC1 [Example 645, N,N-dimethyl-4-(4-morpholin-4-yl-6-{4-[({4-[(4-propylpiperidin-1-yl)carbonyl]phenyl}carbamoyl)amino]phenyl}-1,3,5-triazin-2-yl)piperazine-1-carboxamide] | 230 | 105 | 120 nM |  |  |
| CNCCNC(=O)Nc1ccc(-c2nc(OC3CCOCC3)nc(N3CCOCC3)n2)cc1 [Example 64, 1-[2-(methylamino)ethyl]-3-{4-[4-morpholin-4-yl-6-(tetrahydro-2H-pyran-4-yloxy)-1,3,5-triazin-2-yl]phenyl}urea] | 1190 | 1460 | 1500 nM |  |  |
